{"source": "patent US20040180917A1", "about": "“Novel tricyclic dihydro-quinoline derivatives, method for preparing same and pharmaceutical compositions containing the same” (priority 2001, published 2004)", "system": "L1210", "assay": "In vitro cytotoxicity, Microculture Tetrazolium Assay, L1210", "format": "cell-based", "settings": "L1210 murine leukaemia, incubated for 2 days; read-out: IC50 (concentration of cytotoxic agent which inhibits proliferation of the treated cells by 50%)", "experimental": "Three cell lines were used:\nThe cells are cultured in RPMI 1640 complete culture medium containing 10% foetal calf serum, 2 mM glutamine, 50 units/ml of penicillin, 50 μg/ml of streptomycin and 10 mM Hepes, pH=7.4. The cells are distributed on microplates and are exposed to the cytotoxic compounds. The cells are then incubated for 2 days (L1210) or 4 days (A549, HT29). The number of viable cells is then quantified by a colorimetric assay, the Microculture Tetrazolium Assay (Cancer Res. 1987, 47, 939-942).", "data": [{"compound": "COc1cc(C2C3=C(COC3=O)Nc3c2ccc2ccc(O)cc32)cc(OC)c1OC", "note": "(stereo not shown) [Example 4]", "values": [{"measurement": "IC50", "value": 7, "unit": "nM"}]}]}
